Assay results: ChEMBL document CHEMBL3272271, “Folate antagonists. 13. 2,4-Diamino-6-](alpha,alpha,alpha-trifluoro-m-tolyl)thio]quinazoline and related 2,4-diamino-6-[(phenyl- and naphthyl)thio]quinazolines, a unique class of antimetabolites with extraordinary antimalarial and antibacterial effects” (J Med Chem, 1978)
Calls of active or inactive are those of the source. The rule behind the calls is not given here.

What was measured:
Plasmodium gallinaceum [1] = experiment: Antimalarial activity against sporozoite-induced Plasmodium gallinaceum infected in white leghorn chicken assessed as increase in mean survival days of host at 120 mg/kg, sc administered 72 hrs after infection relative to control; format: functional; conditions: route subcutaneous
Plasmodium gallinaceum [2] = experiment: Antimalarial activity against sporozoite-induced Plasmodium gallinaceum infected in white leghorn chicken assessed as increase in mean survival days of host at 60 mg/kg, sc administered 72 hrs after infection relative to control; format: functional; conditions: route subcutaneous
Plasmodium gallinaceum [3] = experiment: Antimalarial activity against sporozoite-induced Plasmodium gallinaceum infected in white leghorn chicken assessed as increase in mean survival days of host at 7.5 mg/kg, sc administered 72 hrs after infection relative to control; format: functional; conditions: route subcutaneous
Plasmodium berghei [4] = experiment: Antimalarial activity against Plasmodium berghei infected in mouse assessed as increase in mean survival days of host at 10 mg/kg, sc administered 72 hrs after infection relative to control; format: functional; conditions: route subcutaneous
Plasmodium gallinaceum [5] = experiment: Antimalarial activity against sporozoite-induced Plasmodium gallinaceum infected in white leghorn chicken assessed as increase in mean survival days of host at 30 mg/kg, sc administered 72 hrs after infection relative to control; format: functional; conditions: route subcutaneous
Plasmodium berghei [6] = experiment: Antimalarial activity against trophozoite-induced Plasmodium berghei infected in mouse assessed as daily dose required to suppression of 90% parasite infection administered with diet for 6 days; format: functional
Plasmodium berghei [7] = experiment: Antimalarial activity against Plasmodium berghei infected in mouse assessed as increase in mean survival days of host at 20 mg/kg, sc administered 72 hrs after infection relative to control; format: functional; conditions: route subcutaneous
Plasmodium gallinaceum [8] = experiment: Antimalarial activity against sporozoite-induced Plasmodium gallinaceum infected in white leghorn chicken assessed as increase in mean survival days of host at 240 mg/kg, sc administered 72 hrs after infection relative to control; format: functional; conditions: route subcutaneous
Plasmodium berghei [9] = experiment: Antimalarial activity against Plasmodium berghei infected in mouse assessed as increase in mean survival days of host at 80 mg/kg, sc administered 72 hrs after infection relative to control; format: functional; conditions: route subcutaneous
Plasmodium gallinaceum [10] = experiment: Antimalarial activity against sporozoite-induced Plasmodium gallinaceum infected in white leghorn chicken assessed as increase in mean survival days of host at 15 mg/kg, sc administered 72 hrs after infection relative to control; format: functional; conditions: route subcutaneous
Plasmodium berghei [11] = experiment: Antimalarial activity against Plasmodium berghei infected in mouse assessed as increase in mean survival days of host at 40 mg/kg, sc administered 72 hrs after infection relative to control; format: functional; conditions: route subcutaneous
Plasmodium berghei [12] = experiment: Antimalarial activity against Plasmodium berghei infected in mouse assessed as increase in mean survival days of host at 160 mg/kg, sc administered 72 hrs after infection relative to control; format: functional; conditions: route subcutaneous
Plasmodium berghei [13] = experiment: Ratio of quinine hydrochloride SD90 to compound SD90 for trophozoite-induced Plasmodium berghei infected in mouse assessed as daily dose required to suppression of 90% parasite infection administered with diet for 6 days; format: functional
Gallus gallus = experiment: Toxicity in sporozoite-induced Plasmodium gallinaceum infected white leghorn chicken assessed as mortality at 480 mg/kg, sc administered 72 hrs after infection measured up to 6 days; format: organism-based; parameters: dose 480 mg/kg, route subcutaneous; conditions: in vivo
Plasmodium gallinaceum [14] = experiment: Antimalarial activity against trophozoite-induced Plasmodium gallinaceum infected in white leghorn chicken assessed as increase in mean survival days of host at 320 mg/kg, sc administered 72 hrs after infection relative to control; format: functional; conditions: route subcutaneous
Plasmodium gallinaceum [15] = experiment: Antimalarial activity against trophozoite-induced Plasmodium gallinaceum infected in white leghorn chicken assessed as disease cure from parasite infection at 320 mg/kg, sc administered 72 hrs after infection; format: functional, organism-based; parameters: dose 320 mg/kg
Plasmodium gallinaceum [16] = experiment: Antimalarial activity against trophozoite-induced Plasmodium gallinaceum infected in white leghorn chicken assessed as increase in mean survival days of host at 80 mg/kg, sc administered 72 hrs after infection relative to control; format: functional; conditions: route subcutaneous
Plasmodium gallinaceum [17] = experiment: Antimalarial activity against sporozoite-induced Plasmodium gallinaceum infected in white leghorn chicken assessed as disease cure from parasite infection at 15 mg/kg, sc administered 72 hrs after infection; format: functional, organism-based; parameters: dose 15 mg/kg
Plasmodium gallinaceum [18] = experiment: Antimalarial activity against sporozoite-induced Plasmodium gallinaceum infected in white leghorn chicken assessed as disease cure from parasite infection at 480 mg/kg, sc administered 72 hrs after infection; format: functional, organism-based; parameters: dose 480 mg/kg
Plasmodium gallinaceum [19] = experiment: Antimalarial activity against sporozoite-induced Plasmodium gallinaceum infected in white leghorn chicken assessed as disease cure from parasite infection at 160 mg/kg, sc administered 72 hrs after infection; format: functional, organism-based; parameters: dose 160 mg/kg
Plasmodium gallinaceum [20] = experiment: Antimalarial activity against sporozoite-induced Plasmodium gallinaceum infected in white leghorn chicken assessed as disease cure from parasite infection at 60 mg/kg, sc administered 72 hrs after infection; format: functional, organism-based; parameters: dose 60 mg/kg
Plasmodium berghei [21] = experiment: Antimalarial activity against Plasmodium berghei infected in mouse assessed as disease cure from parasite infection at 320 mg/kg, sc administered 72 hrs after infection; format: functional, organism-based; parameters: dose 320 mg/kg
Plasmodium gallinaceum [22] = experiment: Antimalarial activity against sporozoite-induced Plasmodium gallinaceum infected in white leghorn chicken assessed as disease cure from parasite infection at 240 mg/kg, sc administered 72 hrs after infection; format: functional, organism-based; parameters: dose 240 mg/kg
Plasmodium gallinaceum [23] = experiment: Antimalarial activity against sporozoite-induced Plasmodium gallinaceum infected in white leghorn chicken assessed as disease cure from parasite infection at 30 mg/kg, sc administered 72 hrs after infection; format: functional, organism-based; parameters: dose 30 mg/kg
Plasmodium berghei [24] = experiment: Antimalarial activity against Plasmodium berghei infected in mouse assessed as disease cure from parasite infection at 80 mg/kg, sc administered 72 hrs after infection; format: functional, organism-based; parameters: dose 80 mg/kg
Plasmodium berghei [25] = experiment: Antimalarial activity against Plasmodium berghei infected in mouse assessed as disease cure from parasite infection at 160 mg/kg, sc administered 72 hrs after infection; format: functional, organism-based; parameters: dose 160 mg/kg
Plasmodium gallinaceum [26] = experiment: Antimalarial activity against sporozoite-induced Plasmodium gallinaceum infected in white leghorn chicken assessed as disease cure from parasite infection at 80 mg/kg, sc administered 72 hrs after infection; format: functional, organism-based; parameters: dose 80 mg/kg
Plasmodium gallinaceum [27] = experiment: Antimalarial activity against trophozoite-induced Plasmodium gallinaceum infected in white leghorn chicken assessed as disease cure from parasite infection at 80 mg/kg, sc administered 72 hrs after infection; format: functional, organism-based; parameters: dose 80 mg/kg
Plasmodium gallinaceum [28] = experiment: Antimalarial activity against trophozoite-induced Plasmodium gallinaceum infected in white leghorn chicken assessed as increase in mean survival days of host at 120 mg/kg, sc administered 72 hrs after infection relative to control; format: functional; conditions: route subcutaneous
Plasmodium gallinaceum [29] = experiment: Antimalarial activity against sporozoite-induced Plasmodium gallinaceum infected in white leghorn chicken assessed as disease cure from parasite infection at 320 mg/kg, sc administered 72 hrs after infection; format: functional, organism-based; parameters: dose 320 mg/kg
Plasmodium gallinaceum [30] = experiment: Antimalarial activity against trophozoite-induced Plasmodium gallinaceum infected in white leghorn chicken assessed as disease cure from parasite infection at 160 mg/kg, sc administered 72 hrs after infection; format: functional, organism-based; parameters: dose 160 mg/kg
Plasmodium berghei [31] = experiment: Antimalarial activity against Plasmodium berghei infected in mouse assessed as disease cure from parasite infection at 20 mg/kg, sc administered 72 hrs after infection; format: functional, organism-based; parameters: dose 20 mg/kg
Plasmodium gallinaceum [32] = experiment: Antimalarial activity against sporozoite-induced Plasmodium gallinaceum infected in white leghorn chicken assessed as disease cure from parasite infection at 120 mg/kg, sc administered 72 hrs after infection; format: functional, organism-based; parameters: dose 120 mg/kg

`CC(=O)O.Nc1nc(N)c2cc(NCc3ccc(Cl)c(Cl)c3)ccc2n1` gave an MST (Plasmodium gallinaceum [1]) of 0 days, an MST (Plasmodium gallinaceum [2]) of 0 days and an MST (Plasmodium gallinaceum [3]) of 2.3 days. For the same molecule, the MST (Plasmodium berghei [4]) was 0.7 days, the MST (Plasmodium gallinaceum [5]) was 0 days and the SD90 (Plasmodium berghei [6]) was 9.5 mg/kg/day. The MST (Plasmodium berghei [7]) was 2.5 days, the MST (Plasmodium gallinaceum [8]) was 0 days and the MST (Plasmodium berghei [9]) was 12.9 days. For the same molecule, the MST (Plasmodium gallinaceum [10]) was 3.1 days, the MST (Plasmodium berghei [11]) was 7.1 days and the MST (Plasmodium berghei [12]) was 9.9 days. For the same molecule, the Ratio (Plasmodium berghei [13]) was 7.9 and the Activity (Gallus gallus) was “Toxic”.

For `CC(=O)O.Nc1nc(N)c2cc(N(Cc3ccc(Cl)c(Cl)c3)N=O)ccc2n1`, the MST (Plasmodium gallinaceum [14]) was 16.9 days, the Activity (Plasmodium gallinaceum [15]) was “Active” and the MST (Plasmodium gallinaceum [5]) was 0 days. For the same molecule, the SD90 (Plasmodium berghei [6]) was 0.27 mg/kg/day, the MST (Plasmodium gallinaceum [16]) was 16.9 days and the Activity (Plasmodium gallinaceum [17]) was “Active”. The Activity (Plasmodium gallinaceum [18]) was “Active”, the Activity (Plasmodium gallinaceum [19]) was “Active” and the MST (Plasmodium berghei [7]) was 22.4 days. The Activity (Plasmodium gallinaceum [20]) was “Active”, the Activity (Plasmodium berghei [21]) was “Active” and the Activity (Plasmodium gallinaceum [22]) was “Active”. For the same molecule, the Activity (Plasmodium gallinaceum [23]) was “Active”, the MST (Plasmodium gallinaceum [10]) was 0 days and the Activity (Plasmodium berghei [24]) was “Active”. The Activity (Plasmodium berghei [25]) was “Active”, the Activity (Plasmodium gallinaceum [26]) was “Active” and the Ratio (Plasmodium berghei [13]) was 270. The Activity (Plasmodium gallinaceum [27]) was “Active”, the MST (Plasmodium gallinaceum [28]) was 16.9 days and the Activity (Plasmodium gallinaceum [29]) was “Active”. The Activity (Plasmodium gallinaceum [30]) was “Active”, the Activity (Plasmodium berghei [31]) was “Active” and the Activity (Plasmodium gallinaceum [32]) was “Active”. The Activity (Gallus gallus) was “Toxic”.
